Data taken from patent US20020187123A1, “Therapeutic compositions and methods for the inhibition of angiogenesis” (priority 2001, published 2002).

Tests used:
[1] = test system: tumor growth; conditions: mouse model; cited from earlier work
[2] = test system: VEGF-stimulated endothelial vessel formation by aortic endothelium; experiment: Aortic ring explant assay of endothelial vessel morphogenesis; type: cell-based; conditions: aortae of wild type mice
Text: The results described above were extended using an aortic ring explant assay of endothelial vessel morphogenesis. […] The more rapid and extensive growth in E-selectin deficient aortae is therefore consistent with the hypothesis that E-selectin is required for endostatin activity.

[3] = test system: bFGF-stimulated corneal angiogenesis; experiment: Corneal angiogenesis assay; type: in vivo, mice; conditions: delivered by intraperitoneal osmotic pump
Text: The effect of endostatin on bFGF-stimulated corneal angiogenesis was examined in wild type and E-selectin deficient mice.

[4] = test system: isolated, cultured human endothelial cells; experiment: Endostatin responsiveness of isolated, cultured human endothelial cells; type: cell-based

endostatin
effect on tumor growth [1]: dramatic reduction in tumor growth | effect on vessel formation [2]: vessel formation was inhibited | effect on FGF-stimulated corneal angiogenesis ([3]; E-selectin deficient mice): not in the E-selectin deficient mice | effect on FGF-stimulated corneal angiogenesis ([3]; wild type mice): inhibited FGF-stimulated angiogenesis

tumor necrosis factor-alpha
effect on endostatin responsiveness ([4]; isolated cultured human endothelial cells, even in the presence of E-selectin): appears to block and/or prevent endostatin responsiveness

B1: E-selectin (protein, UniProt P16581 22-610, looked up)
E-selectin: WSYNTSTEAMTYDEASAYCQQRYTHLVAIQNKEEIEYLNSILSYSPSYYWIGIRKVNNVWVWVGTQKPLTEEAKNWAPGEPNNRQKDEDCVEIYIKREKDVGMWNDERCSKKKLALCYTAACTNTSCSGHGECVETINNYTCKCDPGFSGLKCEQIVNCTALESPEHGSLVCSHPLGNFSYNSSCSISCDRGYLPSSMETMQCMSSGEWSAPIPACNVVECDAVTNPANGFVECFQNPGSFPWNTTCTFDCEEGFELMGAQSLQCTSSGNWDNEKPTCKAVTCRAVRQPQNGSVRCSHSPAGEFTFKSSCNFTCEEGFMLQGPAQVECTTQGQWTQQIPVCEAFQCTALSNPERGYMNCLPSASGSFRYGSSCEFSCEQGFVLKGSKRLQCGPTGEWDNEKPTCEAVRCDAVHQPPKGLVRCAHSPIGEFTYKSSCAFSCEEGFELHGSTQLECTSQGQWTEEVPSCQVVKCSSLAVPGKINMSCSGEPVFGTVCKFACPEGWTLNGSAARTCGATGHWSGLLPTCEAPTESNIPLVAGLSAAGLSLLTLAPFLLWLRKCLRKAKKFVPASSCQSLESDGSYQKPSYIL
notes: a cell surface glycoprotein expressed by the endothelium
effect on endostatin responsiveness ([4]; isolated, cultured human endothelial cells): can be sufficient to confer endostatin responsiveness
